Source: the CheMixHub viscosity set

Assay: xn = mol fraction of the nth substance listed

ClC(Cl)Cl + CCCO
viscosity [mPa·s]
Conditions | 101 kPa | 101.3 kPa
293.15 K, x2 = 0.1045 | 0.7119 | –
293.15 K, x2 = 0.2064 | 0.7711 | –
293.15 K, x2 = 0.3054 | 0.8524 | –
293.15 K, x2 = 0.4027 | 0.9582 | –
293.15 K, x2 = 0.5075 | 1.105 | –
293.15 K, x2 = 0.6005 | 1.255 | –
293.15 K, x2 = 0.7045 | 1.507 | –
293.15 K, x2 = 0.8005 | 1.746 | –
293.15 K, x2 = 0.8967 | 1.998 | –
303 K, x1 = 0.2987 | – | 1.065
303 K, x1 = 0.4992 | – | 0.8162
303 K, x1 = 0.699 | – | 0.6346
303 K, x1 = 0.9085 | – | 0.5383
303.15 K, x2 = 0.059 | 0.5225 | 0.5225
303.15 K, x2 = 0.1045 | 0.6482 | –
303.15 K, x2 = 0.1099 | 0.5365 | 0.5365
303.15 K, x2 = 0.1428 | 0.5488 | 0.5488
303.15 K, x2 = 0.1958 | 0.5706 | 0.5706
303.15 K, x2 = 0.2064 | 0.6878 | –
303.15 K, x2 = 0.2432 | 0.5949 | 0.5949
303.15 K, x2 = 0.3054 | 0.7556 | –
303.15 K, x2 = 0.3447 | 0.6588 | 0.6588
303.15 K, x2 = 0.4027 | 0.8383 | –
303.15 K, x2 = 0.4974 | 0.8026 | 0.8026
303.15 K, x2 = 0.5075 | 0.9487 | –
303.15 K, x2 = 0.6005 | 1.073 | –
303.15 K, x2 = 0.6171 | 0.9716 | 0.9716
303.15 K, x2 = 0.7045 | 1.242 | –
303.15 K, x2 = 0.7318 | 1.185 | 1.185
303.15 K, x2 = 0.8005 | 1.408 | –
303.15 K, x2 = 0.8606 | 1.46 | 1.46
303.15 K, x2 = 0.8967 | 1.584 | –
303.15 K, x2 = 0.9106 | 1.565 | 1.565
303.15 K, x2 = 0.9251 | 1.595 | 1.595
303.15 K, x2 = 0.9307 | 1.606 | –
303.15 K, x2 = 0.95 | 1.643 | –
311 K, x1 = 0.0987 | – | 1.283
311 K, x1 = 0.2987 | – | 0.9064
311 K, x1 = 0.4992 | – | 0.7227
311 K, x1 = 0.699 | – | 0.5734
311 K, x1 = 0.9085 | – | 0.4977
313.15 K, x2 = 0.1045 | 0.5901 | –
313.15 K, x2 = 0.2064 | 0.6192 | –
313.15 K, x2 = 0.3054 | 0.6675 | –
313.15 K, x2 = 0.4027 | 0.7329 | –
313.15 K, x2 = 0.5075 | 0.8143 | –
313.15 K, x2 = 0.6005 | 0.9163 | –
313.15 K, x2 = 0.7045 | 1.043 | –
313.15 K, x2 = 0.8967 | 1.278 | –
319 K, x1 = 0.0987 | – | 1.08
319 K, x1 = 0.2941 | – | 0.8178
319 K, x1 = 0.497 | – | 0.6404
319 K, x1 = 0.699 | – | 0.5202
319 K, x1 = 0.9085 | – | 0.4655
323.15 K, x2 = 0.1045 | 0.4791 | –
323.15 K, x2 = 0.2064 | 0.535 | –
323.15 K, x2 = 0.3054 | 0.5965 | –
323.15 K, x2 = 0.4027 | 0.6495 | –
323.15 K, x2 = 0.5075 | 0.7165 | –
323.15 K, x2 = 0.6005 | 0.7941 | –
323.15 K, x2 = 0.7045 | 0.8805 | –
323.15 K, x2 = 0.8005 | 0.965 | –
323.15 K, x2 = 0.8967 | 1.047 | –

ClC(Cl)Cl + CCO
Conditions | viscosity [mPa·s]
303 K, 101.3 kPa, x1 = 0.1074 | 0.9539
303 K, 101.3 kPa, x1 = 0.2992 | 0.8095
303 K, 101.3 kPa, x1 = 0.5029 | 0.6591
303 K, 101.3 kPa, x1 = 0.6978 | 0.5679
303 K, 101.3 kPa, x1 = 0.9003 | 0.5256
303.15 K, 101 kPa, x2 = 0.0811 | 0.514
303.15 K, 101 kPa, x2 = 0.1571 | 0.5247
303.15 K, 101 kPa, x2 = 0.2368 | 0.544
303.15 K, 101 kPa, x2 = 0.3342 | 0.5774
303.15 K, 101 kPa, x2 = 0.4545 | 0.6351
303.15 K, 101 kPa, x2 = 0.5514 | 0.697
303.15 K, 101 kPa, x2 = 0.6372 | 0.7617
303.15 K, 101 kPa, x2 = 0.7644 | 0.8683
303.15 K, 101 kPa, x2 = 0.7943 | 0.8927
303.15 K, 101 kPa, x2 = 0.8607 | 0.9412
303.15 K, 101 kPa, x2 = 0.9211 | 0.9752
303.15 K, 101.3 kPa, x2 = 0.186 | 0.514
303.15 K, 101.3 kPa, x2 = 0.3257 | 0.5247
303.15 K, 101.3 kPa, x2 = 0.4457 | 0.544
303.15 K, 101.3 kPa, x2 = 0.5653 | 0.5774
303.15 K, 101.3 kPa, x2 = 0.6834 | 0.6351
303.15 K, 101.3 kPa, x2 = 0.761 | 0.697
303.15 K, 101.3 kPa, x2 = 0.8198 | 0.7617
303.15 K, 101.3 kPa, x2 = 0.8937 | 0.8683
303.15 K, 101.3 kPa, x2 = 0.9091 | 0.8927
303.15 K, 101.3 kPa, x2 = 0.9412 | 0.9412
303.15 K, 101.3 kPa, x2 = 0.968 | 0.9752
311 K, 101.3 kPa, x1 = 0.1074 | 0.8217
311 K, 101.3 kPa, x1 = 0.2992 | 0.7021
311 K, 101.3 kPa, x1 = 0.5029 | 0.5849
311 K, 101.3 kPa, x1 = 0.6978 | 0.5169
311 K, 101.3 kPa, x1 = 0.9003 | 0.4864
319 K, 101.3 kPa, x1 = 0.1074 | 0.7107
319 K, 101.3 kPa, x1 = 0.2892 | 0.6097
319 K, 101.3 kPa, x1 = 0.5029 | 0.5234
319 K, 101.3 kPa, x1 = 0.6978 | 0.4922
319 K, 101.3 kPa, x1 = 0.9003 | 0.4517
